Tests used:
[1] = Pilot study: oral daily Kneller's Trione in men, plasma sex hormone profile; type: in vivo, human; settings: for change of testosterone-to-estradiol ratio: 14 days, ending vs starting ratio; for TOTAL TESTOSTERONE / ESTRADIOL / DHT: person
Experimental: The first study subject was a person who was dosed once per day orally with 25 mg per day of Kneller's Trione.
The second study subject was a person who was dosed once per day orally with 50 mg per day of Kneller's Trione.
The third study subject was a person who was dosed once per day orally with 100 mg per day of Kneller's Trione.

[2] = Pilot study: adverse events and safety observations in study subjects; type: in vivo, human

Structure (SMILES): C[C@]12CCC(=O)C[C@@H]1C(=O)C[C@@H]1[C@@H]2CC[C@]2(C)C(=O)CC[C@@H]12 [Kneller's Trione, 5α-androstane-3,6,17-trione]
- change of testosterone-to-estradiol ratio ([1]; 25 mg daily oral): 130%
- change of testosterone-to-estradiol ratio ([1]; 50 mg daily oral): 28%
- effect on bioavailable testosterone level ([1]; 250 mg per day oral): raised
- effect on total testosterone level ([1]; 250 mg per day oral): raised
- effect on bioavailable testosterone level ([1]; 500 mg per day oral): raised
- effect on total testosterone level ([1]; 500 mg per day oral): raised
- added benefits with high dosage ([1]; 750 mg per day oral): no added benefits were seen
- changes in plasma estradiol levels in men ([1]; general statement): no changes outside the accepted normal limits
- effect on plasma testosterone levels in men ([1]; general statement): substantial and significant increases
- increase of plasma free testosterone levels ([1]; oral administration): more than 100%
- TOTAL TESTOSTERONE ([1]; 25 mg per day oral, single dose, DAY 7 (baseline 6,290 pg/mL)): 6,400 pg/mL
- ESTRADIOL ([1]; 25 mg per day oral, DAY 7 (baseline 47 pg/mL)): 28 pg/mL
- DHT ([1]; 25 mg per day oral, DAY 7 (baseline 42 ng/dL)): 36 ng/dL
- ESTRADIOL ([1]; 25 mg per day oral, DAY 14 (baseline 47 pg/mL)): 23 pg/mL
- DHT ([1]; 25 mg per day oral, DAY 14 (baseline 42 ng/dL)): 49 ng/dL
- TOTAL TESTOSTERONE ([1]; 50 mg per day oral, single dose, DAY 7 (baseline 8,570 pg/mL)): 11,000 pg/mL
- ESTRADIOL ([1]; 50 mg per day oral, DAY 7 (baseline 36 pg/mL)): 35 pg/mL
- DHT ([1]; 50 mg per day oral, DAY 7 (baseline 47 ng/dL)): 46 ng/dL
- ESTRADIOL ([1]; 50 mg per day oral, DAY 14 (baseline 36 pg/mL)): 36 pg/mL
- TOTAL TESTOSTERONE ([1]; 50 mg per day oral, DAY 14 (baseline 8,570 pg/mL)): 11,000 pg/mL
- DHT ([1]; 50 mg per day oral, DAY 14 (baseline 47 ng/dL)): 49 ng/dL
- ESTRADIOL ([1]; 100 mg per day oral, DAY 7 (baseline 46 pg/mL)): 44 pg/mL
- DHT ([1]; 100 mg per day oral, DAY 7 (baseline 35 ng/dL)): 48 ng/dL
- ESTRADIOL ([1]; 100 mg per day oral, DAY 14 (baseline 46 pg/mL)): 34 pg/mL
- DHT ([1]; 100 mg per day oral, DAY 14 (baseline 35 ng/dL)): 41 ng/dL
- adverse event causing the subject to withdraw ([2]; 750 mg per day oral): priaprism
- other adverse events noted by any study subject ([2]; oral daily dosages 25 mg to 750 mg): No other adverse events
